Reference: paper PMC3115942 (PLoS ONE, 2011)

What was measured:
Experiment in all cases: Millipore kinaseprofiler diversity array
Format in all cases: biochemical
Settings in all cases: 10 µM MS-0022
[1] = target: T1, ALK(h) (Homo sapiens, UniProt Q9UM73)
T1 construct: purchased Millipore (Upstate) KinaseProfiler
Description: (§1) Table 4 Kinase activity in presence of 10 µM MS-0022 in a kinaseprofiler diversity array. | column: Activity %

[2] = target: T2, ASK1(h) (Homo sapiens, UniProt Q99683)
T2 construct: purchased Millipore (Upstate) KinaseProfiler
Description: as §1

[3] = target: T3, Abl(h) (Homo sapiens, UniProt P00519)
T3 construct: purchased Millipore (Upstate) KinaseProfiler
T3 sequence (P00519 whole entry): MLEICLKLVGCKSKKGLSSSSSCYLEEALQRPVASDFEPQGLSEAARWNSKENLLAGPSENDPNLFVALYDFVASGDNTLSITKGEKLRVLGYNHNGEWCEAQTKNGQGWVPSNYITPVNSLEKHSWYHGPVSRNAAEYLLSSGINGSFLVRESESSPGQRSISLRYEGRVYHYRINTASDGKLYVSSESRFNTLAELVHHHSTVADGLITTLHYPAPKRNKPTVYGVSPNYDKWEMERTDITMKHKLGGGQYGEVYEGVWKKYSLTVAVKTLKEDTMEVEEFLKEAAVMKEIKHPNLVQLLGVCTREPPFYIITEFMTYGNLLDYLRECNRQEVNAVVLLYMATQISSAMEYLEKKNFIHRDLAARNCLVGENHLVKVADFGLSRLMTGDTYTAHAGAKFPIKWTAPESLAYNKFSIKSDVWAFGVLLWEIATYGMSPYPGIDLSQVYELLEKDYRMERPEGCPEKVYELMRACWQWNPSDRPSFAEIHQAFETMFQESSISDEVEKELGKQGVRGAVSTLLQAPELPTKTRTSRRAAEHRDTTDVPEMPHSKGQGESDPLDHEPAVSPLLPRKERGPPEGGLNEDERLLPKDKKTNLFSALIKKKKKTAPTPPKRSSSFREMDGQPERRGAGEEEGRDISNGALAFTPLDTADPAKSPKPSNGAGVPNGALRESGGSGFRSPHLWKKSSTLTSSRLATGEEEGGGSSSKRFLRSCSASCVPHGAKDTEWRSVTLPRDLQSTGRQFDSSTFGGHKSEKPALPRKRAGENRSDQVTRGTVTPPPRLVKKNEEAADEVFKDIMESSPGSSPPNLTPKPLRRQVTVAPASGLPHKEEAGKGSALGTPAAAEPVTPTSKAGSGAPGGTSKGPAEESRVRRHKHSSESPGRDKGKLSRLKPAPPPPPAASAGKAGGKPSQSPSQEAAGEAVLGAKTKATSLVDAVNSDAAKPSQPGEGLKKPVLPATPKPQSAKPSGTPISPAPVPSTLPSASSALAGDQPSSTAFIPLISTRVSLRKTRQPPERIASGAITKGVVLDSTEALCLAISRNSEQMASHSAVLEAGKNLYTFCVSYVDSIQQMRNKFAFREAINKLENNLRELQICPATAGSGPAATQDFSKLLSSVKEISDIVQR
Description: as §1

[4] = target: T4, CDK7/cyclinH/MAT1(h) (Homo sapiens, UniProt P50613)
T4 construct: purchased Millipore (Upstate) KinaseProfiler
Description: as §1

[5] = target: T5, CDK9/cyclin T1(h) (Homo sapiens, UniProt P50750)
T5 construct: purchased Millipore (Upstate) KinaseProfiler
Description: as §1

[6] = target: T6, CHK1(h) (Homo sapiens, UniProt O14757)
T6 construct: purchased Millipore (Upstate) KinaseProfiler
Description: as §1

[7] = target: T7, CK1γ1(h) (Homo sapiens, UniProt Q9HCP0)
T7 construct: purchased Millipore (Upstate) KinaseProfiler
Description: as §1

[8] = target: T8, CK2α2(h) (Homo sapiens, UniProt P19784)
T8 construct: purchased Millipore (Upstate) KinaseProfiler
Description: as §1

[9] = target: T9, CaMKI(h) (Homo sapiens, UniProt Q14012)
T9 construct: purchased Millipore (Upstate) KinaseProfiler
Description: as §1

[10] = target: T10, DRAK1(h) (Homo sapiens, UniProt Q9UEE5)
T10 construct: purchased Millipore (Upstate) KinaseProfiler
Description: as §1

[11] = target: T11, EGFR(h) (Homo sapiens, UniProt P00533)
T11 construct: purchased Millipore (Upstate) KinaseProfiler
Description: as §1

[12] = target: T12, EphA5(h) (Homo sapiens, UniProt P54756)
T12 construct: purchased Millipore (Upstate) KinaseProfiler
Description: as §1

[13] = target: T13, EphB4(h) (Homo sapiens, UniProt P54760)
T13 construct: purchased Millipore (Upstate) KinaseProfiler
Description: as §1

[14] = target: T14, Fyn(h) (Homo sapiens, UniProt P06241)
T14 construct: purchased Millipore (Upstate) KinaseProfiler
Description: as §1

[15] = target: T15, GRK5(h) (Homo sapiens, UniProt P34947)
T15 construct: purchased Millipore (Upstate) KinaseProfiler
T15 sequence (P34947 whole entry): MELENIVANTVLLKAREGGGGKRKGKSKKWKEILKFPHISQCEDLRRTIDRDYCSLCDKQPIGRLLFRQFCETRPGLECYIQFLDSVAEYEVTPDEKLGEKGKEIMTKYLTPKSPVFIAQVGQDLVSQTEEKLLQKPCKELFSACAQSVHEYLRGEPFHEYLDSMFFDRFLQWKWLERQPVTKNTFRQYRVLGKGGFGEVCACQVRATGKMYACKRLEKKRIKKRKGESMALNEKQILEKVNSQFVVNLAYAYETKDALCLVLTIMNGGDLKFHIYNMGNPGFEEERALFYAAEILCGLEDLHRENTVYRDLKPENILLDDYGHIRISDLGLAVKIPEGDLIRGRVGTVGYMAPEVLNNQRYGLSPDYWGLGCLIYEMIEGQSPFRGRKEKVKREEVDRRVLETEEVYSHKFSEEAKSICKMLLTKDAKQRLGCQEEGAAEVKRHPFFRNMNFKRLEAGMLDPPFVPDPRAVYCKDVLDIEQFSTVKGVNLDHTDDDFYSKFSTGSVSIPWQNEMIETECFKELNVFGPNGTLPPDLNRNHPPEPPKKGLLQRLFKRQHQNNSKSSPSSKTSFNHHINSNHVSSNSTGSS
Description: as §1

[16] = target: T16, GSK3β(h) (Homo sapiens, UniProt P49841)
T16 construct: purchased Millipore (Upstate) KinaseProfiler
Description: as §1

[17] = target: T17, IGF-1R(h) (Homo sapiens, UniProt P08069)
T17 construct: purchased Millipore (Upstate) KinaseProfiler
Description: as §1

[18] = target: T18, IKKα(h) (Homo sapiens, UniProt O15111)
T18 construct: purchased Millipore (Upstate) KinaseProfiler
Description: as §1

[19] = target: T19, IRAK4(h) (Homo sapiens, UniProt Q9NWZ3)
T19 construct: purchased Millipore (Upstate) KinaseProfiler
Description: as §1

[20] = target: T20, JAK2(h) (Homo sapiens, UniProt O60674)
T20 construct: purchased Millipore (Upstate) KinaseProfiler
Description: as §1

[21] = target: T21, JNK3(h) (Homo sapiens, UniProt P53779)
T21 construct: purchased Millipore (Upstate) KinaseProfiler
Description: as §1

[22] = target: T22, KDR(h) (Homo sapiens, UniProt P35968)
T22 construct: purchased Millipore (Upstate) KinaseProfiler
T22 sequence (P35968 20-1356): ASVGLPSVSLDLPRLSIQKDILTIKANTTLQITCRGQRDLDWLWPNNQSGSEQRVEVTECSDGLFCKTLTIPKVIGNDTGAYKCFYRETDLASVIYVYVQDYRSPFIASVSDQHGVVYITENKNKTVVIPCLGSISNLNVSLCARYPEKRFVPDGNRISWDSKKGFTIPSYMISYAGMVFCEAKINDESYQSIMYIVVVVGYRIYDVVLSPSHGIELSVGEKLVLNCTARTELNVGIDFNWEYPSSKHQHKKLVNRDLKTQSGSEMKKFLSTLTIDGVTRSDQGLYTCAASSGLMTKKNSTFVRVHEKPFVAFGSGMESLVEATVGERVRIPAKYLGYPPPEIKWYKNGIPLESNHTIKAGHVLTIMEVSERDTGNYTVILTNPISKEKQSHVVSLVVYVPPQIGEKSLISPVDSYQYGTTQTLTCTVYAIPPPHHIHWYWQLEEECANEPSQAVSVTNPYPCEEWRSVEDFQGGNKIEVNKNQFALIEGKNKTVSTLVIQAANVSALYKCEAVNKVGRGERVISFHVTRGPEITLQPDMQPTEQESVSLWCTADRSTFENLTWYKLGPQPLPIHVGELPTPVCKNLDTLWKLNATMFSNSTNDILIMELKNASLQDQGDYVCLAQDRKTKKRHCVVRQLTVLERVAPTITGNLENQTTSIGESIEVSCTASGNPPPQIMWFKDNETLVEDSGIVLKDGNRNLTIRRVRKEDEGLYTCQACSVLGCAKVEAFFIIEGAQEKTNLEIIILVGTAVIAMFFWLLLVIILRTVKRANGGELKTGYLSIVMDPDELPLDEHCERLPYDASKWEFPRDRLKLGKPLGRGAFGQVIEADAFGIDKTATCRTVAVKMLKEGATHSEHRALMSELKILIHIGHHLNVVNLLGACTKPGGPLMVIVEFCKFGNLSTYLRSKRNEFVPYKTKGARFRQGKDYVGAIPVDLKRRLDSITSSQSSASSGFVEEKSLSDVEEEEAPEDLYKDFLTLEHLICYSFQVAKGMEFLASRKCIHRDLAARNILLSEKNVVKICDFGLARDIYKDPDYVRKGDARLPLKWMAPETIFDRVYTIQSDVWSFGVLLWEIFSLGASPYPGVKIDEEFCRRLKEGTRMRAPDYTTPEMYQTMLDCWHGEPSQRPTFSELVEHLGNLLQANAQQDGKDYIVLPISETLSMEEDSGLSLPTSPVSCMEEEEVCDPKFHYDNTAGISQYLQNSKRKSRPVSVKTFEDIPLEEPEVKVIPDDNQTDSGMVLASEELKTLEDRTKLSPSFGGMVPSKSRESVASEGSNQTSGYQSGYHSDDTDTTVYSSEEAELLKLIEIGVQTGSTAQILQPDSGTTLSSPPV
Description: as §1

[23] = target: T23, Lyn(h) (Homo sapiens, UniProt P07948)
T23 construct: purchased Millipore (Upstate) KinaseProfiler
Description: as §1

[24] = target: T24, MAPK2(h) (Homo sapiens, UniProt P28482)
T24 construct: purchased Millipore (Upstate) KinaseProfiler
Description: as §1

[25] = target: T25, MLK1(h) (Homo sapiens, UniProt P80192)
T25 construct: purchased Millipore (Upstate) KinaseProfiler
Description: as §1

[26] = target: T26, MSK2(h) (Homo sapiens, UniProt O75676)
T26 construct: purchased Millipore (Upstate) KinaseProfiler
Description: as §1

[27] = target: T27, MST1(h) (Homo sapiens, UniProt Q13043)
T27 construct: purchased Millipore (Upstate) KinaseProfiler
T27 sequence (Q13043 whole entry): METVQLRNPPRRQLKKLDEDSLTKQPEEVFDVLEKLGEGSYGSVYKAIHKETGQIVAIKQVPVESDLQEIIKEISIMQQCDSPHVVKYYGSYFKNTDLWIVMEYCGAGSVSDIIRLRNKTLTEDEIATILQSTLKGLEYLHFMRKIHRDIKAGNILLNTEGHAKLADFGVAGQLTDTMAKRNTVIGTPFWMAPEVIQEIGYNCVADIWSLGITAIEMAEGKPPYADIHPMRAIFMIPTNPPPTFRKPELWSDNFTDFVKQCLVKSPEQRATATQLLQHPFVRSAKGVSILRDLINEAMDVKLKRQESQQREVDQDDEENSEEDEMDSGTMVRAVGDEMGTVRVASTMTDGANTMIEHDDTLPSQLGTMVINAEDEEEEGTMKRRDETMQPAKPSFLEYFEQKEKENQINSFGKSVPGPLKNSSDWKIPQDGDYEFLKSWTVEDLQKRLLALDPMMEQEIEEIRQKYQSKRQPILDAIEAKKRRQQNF
Description: as §1

[28] = target: T28, Mnk2(h) (Homo sapiens, UniProt Q9HBH9)
T28 construct: purchased Millipore (Upstate) KinaseProfiler
Description: as §1

[29] = target: T29, NEK2(h) (Homo sapiens, UniProt P51955)
T29 construct: purchased Millipore (Upstate) KinaseProfiler
Description: as §1

[30] = target: T30, PAK2(h) (Homo sapiens, UniProt Q13177)
T30 construct: purchased Millipore (Upstate) KinaseProfiler
Description: as §1

[31] = target: T31, PKBα(h) (Homo sapiens, UniProt P31749)
T31 construct: purchased Millipore (Upstate) KinaseProfiler
T31 sequence (P31749 whole entry): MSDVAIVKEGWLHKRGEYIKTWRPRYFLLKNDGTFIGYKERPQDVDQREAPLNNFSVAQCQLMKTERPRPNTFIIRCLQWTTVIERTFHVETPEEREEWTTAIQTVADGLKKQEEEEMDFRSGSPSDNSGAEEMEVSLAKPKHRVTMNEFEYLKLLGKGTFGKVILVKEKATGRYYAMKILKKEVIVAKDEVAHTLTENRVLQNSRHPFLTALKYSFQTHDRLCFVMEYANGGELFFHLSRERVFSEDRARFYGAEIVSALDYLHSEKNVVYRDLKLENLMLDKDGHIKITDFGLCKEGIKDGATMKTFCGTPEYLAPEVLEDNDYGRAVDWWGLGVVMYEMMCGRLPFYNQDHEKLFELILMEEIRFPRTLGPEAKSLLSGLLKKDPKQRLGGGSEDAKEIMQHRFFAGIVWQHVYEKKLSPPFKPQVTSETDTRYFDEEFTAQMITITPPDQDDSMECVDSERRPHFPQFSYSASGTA
Description: as §1

[32] = target: T32, PKCα(h) (Homo sapiens, UniProt P17252)
T32 construct: purchased Millipore (Upstate) KinaseProfiler
Description: as §1

[33] = target: T33, Plk3(h) (Homo sapiens, UniProt Q9H4B4)
T33 construct: purchased Millipore (Upstate) KinaseProfiler
Description: as §1

[34] = target: T34, ROCK-I(h) (Homo sapiens, UniProt Q13464)
T34 construct: purchased Millipore (Upstate) KinaseProfiler
Description: as §1

[35] = target: T35, Rse(h) (Homo sapiens, UniProt Q06418)
T35 construct: purchased Millipore (Upstate) KinaseProfiler
Description: as §1

[36] = target: T36, Rsk1(h) (Homo sapiens, UniProt Q15418)
T36 construct: purchased Millipore (Upstate) KinaseProfiler
Description: as §1

[37] = target: T37, SAPK2a(h) (Homo sapiens, UniProt Q16539)
T37 construct: purchased Millipore (Upstate) KinaseProfiler
T37 sequence (Q16539 whole entry): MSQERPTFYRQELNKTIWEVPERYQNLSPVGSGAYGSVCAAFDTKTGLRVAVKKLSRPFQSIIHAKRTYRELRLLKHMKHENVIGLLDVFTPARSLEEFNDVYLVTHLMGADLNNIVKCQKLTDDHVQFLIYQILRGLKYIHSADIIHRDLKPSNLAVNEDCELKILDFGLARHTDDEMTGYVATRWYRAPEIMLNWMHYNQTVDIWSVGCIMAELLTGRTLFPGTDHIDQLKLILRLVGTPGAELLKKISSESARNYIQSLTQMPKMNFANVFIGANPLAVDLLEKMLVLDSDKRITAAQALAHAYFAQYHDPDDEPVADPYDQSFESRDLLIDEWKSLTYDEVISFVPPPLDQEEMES
Description: as §1

[38] = target: T38, TAK1(h) (Homo sapiens, UniProt O43318)
T38 construct: purchased Millipore (Upstate) KinaseProfiler
Description: as §1

[39] = target: T39, c-RAF(h) (Homo sapiens, UniProt P04049)
T39 construct: purchased Millipore (Upstate) KinaseProfiler
Description: as §1

[40] = target: T40, cKit(h) (Homo sapiens, UniProt P10721)
T40 construct: purchased Millipore (Upstate) KinaseProfiler
Description: as §1

[41] = target: T41, cSRC(h) (Homo sapiens, UniProt P12931)
T41 construct: purchased Millipore (Upstate) KinaseProfiler
T41 sequence (P12931 whole entry): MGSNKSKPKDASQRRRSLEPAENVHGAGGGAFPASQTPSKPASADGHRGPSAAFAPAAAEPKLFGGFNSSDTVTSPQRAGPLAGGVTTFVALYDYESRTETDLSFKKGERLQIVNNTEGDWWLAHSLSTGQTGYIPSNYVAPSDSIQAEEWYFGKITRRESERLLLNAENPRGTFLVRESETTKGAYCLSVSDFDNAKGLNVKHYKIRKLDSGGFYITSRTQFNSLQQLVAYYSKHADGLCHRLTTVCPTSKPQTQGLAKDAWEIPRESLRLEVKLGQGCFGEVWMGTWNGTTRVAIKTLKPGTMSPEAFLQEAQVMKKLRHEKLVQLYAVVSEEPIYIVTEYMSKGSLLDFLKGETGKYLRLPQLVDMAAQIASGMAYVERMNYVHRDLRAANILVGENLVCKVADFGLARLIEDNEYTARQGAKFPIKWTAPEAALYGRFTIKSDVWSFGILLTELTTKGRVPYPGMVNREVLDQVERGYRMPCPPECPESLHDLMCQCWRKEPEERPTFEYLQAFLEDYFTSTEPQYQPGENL
Description: as §1

[42] = target: T42, eEF-2K(h) (Homo sapiens, UniProt O00418)
T42 construct: purchased Millipore (Upstate) KinaseProfiler
Description: as §1

Compound: Cc1cccn2cc(-c3ccc(NC(=O)c4ccccc4Br)cc3)nc12 [MS-0022, 2-bromo-N-(4-(8-methylimidazo[1,2-a]pyridin-2-yl)phenyl)benzamide]
- activity at 10 µM [1]: 95%
- activity at 10 µM [2]: 91%
- activity at 10 µM [3]: 96%
- activity at 10 µM [4]: 103%
- activity at 10 µM [5]: 98%
- activity at 10 µM [6]: 84%
- activity at 10 µM [7]: 93%
- activity at 10 µM [8]: 109%
- activity at 10 µM [9]: 106%
- activity at 10 µM [10]: 97%
- activity at 10 µM [11]: 84%
- activity at 10 µM [12]: 112%
- activity at 10 µM [13]: 99%
- activity at 10 µM [14]: 100%
- activity at 10 µM [15]: 119%
- activity at 10 µM [16]: 88%
- activity at 10 µM [17]: 105%
- activity at 10 µM [18]: 103%
- activity at 10 µM [19]: 95%
- activity at 10 µM [20]: 110%
- activity at 10 µM [21]: 71%
- activity at 10 µM [22]: 103%
- activity at 10 µM [23]: 103%
- activity at 10 µM [24]: 101%
- activity at 10 µM [25]: 103%
- activity at 10 µM [26]: 92%
- activity at 10 µM [27]: 94%
- activity at 10 µM [28]: 90%
- activity at 10 µM [29]: 127%
- activity at 10 µM [30]: 93%
- activity at 10 µM [31]: 107%
- activity at 10 µM [32]: 106%
- activity at 10 µM [33]: 107%
- activity at 10 µM [34]: 103%
- activity at 10 µM [35]: 107%
- activity at 10 µM [36]: 91%
- activity at 10 µM [37]: 102%
- activity at 10 µM [38]: 98%
- activity at 10 µM [39]: 106%
- activity at 10 µM [40]: 109%
- activity at 10 µM [41]: 83%
- activity at 10 µM [42]: 99%
